The record followed here is PMC7023064, “Design, Synthesis, and Evaluation of Novel 2-Methoxyestradiol Derivatives as Apoptotic Inducers through an Intrinsic Apoptosis Pathway” (Biomolecules, 2020).

Where two headings read alike, the source gives them in different places.

Data set [1] relates to human breast cancer MDA-MB-231 cell lines. In words: MTT cytotoxicity assay, MDA-MB-231. The format is cell-based. The note with it: Homo sapiens, MDA-MB-231, 72 h, mean ± SD of three experiments. How it is done:
(§1) Human breast adenocarcinoma MCF-7 cell lines, human breast cancer MDA-MB-231 cell lines, and the normal human liver L-O2 cell lines were provided by Nanjing KeyGen Biotech Co. Ltd. (Nanjing, China). MCF-7 cells were cultured in a base medium (90% RPMI-1640 and 10% FBS) at 37 °C, 5% CO2 and a saturated humidity atmosphere. MDA-MB-231 cells were cultured in a base medium (90% […] and 10% FBS) at 37 °C, 5% CO2 and a saturated humidity atmosphere. L-O2 cells were cultured in a base medium (90% DMEM and 10% FBS) at 37 °C, 5% CO2 and a saturated humidity atmosphere.
(§2) The cytotoxicity of the tested compounds was determined using the 3-(4,5-dimethyl-2-thiazolyl)-2,5-diphenyl-2-H-tetrazolium bromide (MTT) assay. Cells were seeded in 96-well plates and incubated in a 5% CO2 incubator at 37 °C. When the cells adhered, compounds at different concentrations were added to every well. After incubation for another 72 h, MTT solution (5 mg/mL) was added into each well and cells were incubated for an additional 4 h. The viable cells were stained with MTT and scanned with an electrophotometer at 570 nm. Each concentration treatment was done in triplicate wells. The half maximal inhibitory concentration (IC50) values were estimated by fitting the inhibition data to a dose-dependent curve using a logistic derivative equation.

Data set [2] relates to MCF-7 and MDA-MB-231 cell lines. In words: MTT assay, summary over tested tumor cells. The format is cell-based, human. The note with it: Homo sapiens; MCF-7 and MDA-MB-231; read-out: IC50, anti-proliferative activity against tested tumor cells. How it is done:
as §1, §2
Background: Tetrazolium dyes change colour on reduction, which living cells bring about.

The test system of data set [3] is human breast adenocarcinoma MCF-7 cell lines. In words: MTT cytotoxicity assay, MCF-7. As to conditions: Homo sapiens, MCF7. The format is cell-based. How it is done: as §1, §2
The test system of data set [4] is normal human liver L-O2 cell lines. In words: MTT cytotoxicity assay, L-O2. The format is cell-based. As to conditions: Homo sapiens, L02, 72 h, mean ± SD of three experiments, No = No inhibition detected. How it is done:
as §1, §2

Setting [5] is: MTT, 72 h, mean ± SD of three experiments, read-out: IC50 MCF-7.
Setting [6] is: Table 2, mean ± SD of three experiments, read-out: IC50 for MCF-7.
Where [7] appears, read: pIC50 = −log(IC50), read-out: pIC50 for MCF-7 (converted).

What is called melting point is the temperature of the solid-liquid transition. `COc1cc2c(cc1OCCCCCCn1c(=O)ccn([C@@H]3O[C@H](CO)[C@@H](O)[C@H]3O)c1=O)CC[C@@H]1[C@@H]2CC[C@]2(C)[C@@H](O)CC[C@@H]12` [Compound 18, 3-[6-(1-β-D-Ribofuranosyluracil-3-yl)-Hexyloxy]-2-Methoxy-Estra-1,3,5(10)-Triene-17β-ol] came in with a melting point of 99 to 100 °C. In data set [1], this compound came in with an IC50 of 3.89 ± 0.36 µM. In data set [2], the IC50 lay within 3.89 to 16.7 µM. Moreover, in data set [3] (setting [5]), the IC50 was found to be 6.21 ± 0.37 µM. For the same compound, in data set [3] (setting [6]), the IC50 is 6.21 ± 0.37 µM. For the same compound, the IC50 in data set [3] (setting [7]) is 6.17 µM. The same compound gave an IC50 in data set [4] of 21.3 ± 0.66 µM.

With `COc1cc2c(cc1O)CC[C@@H]1[C@@H]2CC[C@]2(C)[C@@H](OCCCCCCn3c(=O)ccn([C@@H]4O[C@H](CO)[C@@H](O)[C@H]4O)c3=O)CC[C@@H]12` [Compound 10, 17 β-[6-(1-β-D-Ribofuranosyluracil-3-yl)-Hexyloxy]-2-Methoxy-Estra-1,3,5(10)-Triene-3-ol], the melting point is 79 to 81 °C. In data set [1], this compound gave an IC50 of 13.2 ± 1.09 µM. The IC50 in data set [2] is 3.89 to 16.7 µM. Besides, in data set [3] (setting [5]), the IC50 came to 16.7 ± 0.3 µM. Further, in data set [3] (setting [6]), the IC50 worked out at 16.7 ± 0.3 µM. Moreover, the IC50 in data set [3] (setting [7]) was 16.6 µM. This compound gave an IC50 in data set [4] of 35.2 ± 0.42 µM.
